From US9249125B2, “Pyrazole derivatives as p38 MAP inhibitors” (RESPIVERT LIMITED, priority 2012, dated 2016)

Key:
p38 MAPKα [1] = molecular target: T1, p38 MAPKα (Homo sapiens (Human), UniProt Q16539); experiment: Enzyme binding assay (Kinomescan) p38 MAPKα; conditions: read-out: % Inhibition for kinase binding at 500 nM p38 MAPKα
Protocol: (§1) The kinase enzyme binding activities of compounds disclosed herein were determined using a proprietary assay which measures active site-directed competition binding to an immobilized ligand (Fabian, M. A. et al., Nature Biotechnol., 2005, 23:329-336). These assays were conducted by DiscoverX (formerly Ambit; San Diego, Calif.). The percentage inhibition produced by incubation with a test compound is calculated relative to the non-inhibited control.

p38 MAPKγ = p38 MAPKγ (Homo sapiens (Human), UniProt P53778); experiment: Enzyme binding assay (Kinomescan) p38 MAPKγ; conditions: read-out: % Inhibition for kinase binding at 500 nM p38 MAPKγ
Sequence of p38 MAPKγ (P53778 whole entry): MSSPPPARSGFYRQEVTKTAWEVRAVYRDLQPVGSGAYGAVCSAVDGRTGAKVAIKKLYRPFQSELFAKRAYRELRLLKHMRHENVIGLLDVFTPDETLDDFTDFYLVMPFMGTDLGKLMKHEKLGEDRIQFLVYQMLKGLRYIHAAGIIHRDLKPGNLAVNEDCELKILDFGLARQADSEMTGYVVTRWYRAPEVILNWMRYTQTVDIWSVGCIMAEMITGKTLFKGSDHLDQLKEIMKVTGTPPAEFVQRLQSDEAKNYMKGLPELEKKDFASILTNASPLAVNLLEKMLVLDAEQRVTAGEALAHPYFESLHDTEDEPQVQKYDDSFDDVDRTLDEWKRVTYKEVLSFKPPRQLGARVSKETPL
Protocol: (§2) These assays were conducted by DiscoverX (formerly Ambit; San Diego, Calif.). The percentage inhibition produced by incubation with a test compound is calculated relative to the non-inhibited control.

HCK = HCK (Homo sapiens (Human), UniProt P08631); experiment: Enzyme binding assay (Kinomescan) HCK; conditions: read-out: % Inhibition for kinase binding at 500 nM HCK
Sequence of HCK (P08631 22-526): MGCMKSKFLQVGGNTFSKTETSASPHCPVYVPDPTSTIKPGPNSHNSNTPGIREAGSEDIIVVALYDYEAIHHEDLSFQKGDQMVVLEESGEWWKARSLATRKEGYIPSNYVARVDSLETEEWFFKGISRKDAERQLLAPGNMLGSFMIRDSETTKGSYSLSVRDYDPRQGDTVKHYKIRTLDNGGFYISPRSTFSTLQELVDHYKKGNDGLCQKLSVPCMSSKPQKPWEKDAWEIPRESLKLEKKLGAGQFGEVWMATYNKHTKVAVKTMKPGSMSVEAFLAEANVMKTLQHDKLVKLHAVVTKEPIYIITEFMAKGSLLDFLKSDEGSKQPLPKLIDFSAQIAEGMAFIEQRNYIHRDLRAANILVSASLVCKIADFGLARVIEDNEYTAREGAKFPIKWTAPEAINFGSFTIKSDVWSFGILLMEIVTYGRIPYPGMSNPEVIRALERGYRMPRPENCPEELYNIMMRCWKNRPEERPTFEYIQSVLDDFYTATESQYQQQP
Protocol: as §1

Syk [2] = molecular target: T2, Syk (Homo sapiens (Human), UniProt P43405); experiment: Enzyme binding assay (Kinomescan) Syk; conditions: read-out: % Inhibition for kinase binding at 500 nM Syk
Protocol: as §1

GSK3α [3] = molecular target: T3, GSK3α (Homo sapiens (Human), UniProt P49840); experiment: Enzyme binding assay (Kinomescan) GSK3α; conditions: read-out: % Inhibition for kinase binding at 500 nM GSK3α
T3 sequence (P49840 whole entry): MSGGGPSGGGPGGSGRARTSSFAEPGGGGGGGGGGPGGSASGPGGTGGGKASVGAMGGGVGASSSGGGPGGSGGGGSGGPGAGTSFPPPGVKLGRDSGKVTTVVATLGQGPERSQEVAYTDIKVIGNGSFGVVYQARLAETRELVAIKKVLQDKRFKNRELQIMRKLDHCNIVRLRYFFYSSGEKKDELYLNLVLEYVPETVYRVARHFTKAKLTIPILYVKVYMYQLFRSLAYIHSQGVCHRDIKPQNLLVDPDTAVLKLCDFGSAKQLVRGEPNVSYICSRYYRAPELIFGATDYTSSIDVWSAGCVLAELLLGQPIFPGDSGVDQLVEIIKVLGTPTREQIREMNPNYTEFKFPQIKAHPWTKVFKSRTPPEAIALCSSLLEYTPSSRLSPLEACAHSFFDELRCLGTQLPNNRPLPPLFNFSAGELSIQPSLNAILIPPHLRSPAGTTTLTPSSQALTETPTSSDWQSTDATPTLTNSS
Protocol: as §1

p38 MAPKα [4] = molecular target: T1, p38 MAPKα; experiment: p38 MAPKα enzyme inhibition (FRET, Z-LYTE); format: biochemical
cSrc = cSrc (Homo sapiens (Human), UniProt P12931); experiment: c-Src enzyme inhibition (FRET, Z-LYTE); format: biochemical
Sequence of cSrc (P12931 whole entry, looked up): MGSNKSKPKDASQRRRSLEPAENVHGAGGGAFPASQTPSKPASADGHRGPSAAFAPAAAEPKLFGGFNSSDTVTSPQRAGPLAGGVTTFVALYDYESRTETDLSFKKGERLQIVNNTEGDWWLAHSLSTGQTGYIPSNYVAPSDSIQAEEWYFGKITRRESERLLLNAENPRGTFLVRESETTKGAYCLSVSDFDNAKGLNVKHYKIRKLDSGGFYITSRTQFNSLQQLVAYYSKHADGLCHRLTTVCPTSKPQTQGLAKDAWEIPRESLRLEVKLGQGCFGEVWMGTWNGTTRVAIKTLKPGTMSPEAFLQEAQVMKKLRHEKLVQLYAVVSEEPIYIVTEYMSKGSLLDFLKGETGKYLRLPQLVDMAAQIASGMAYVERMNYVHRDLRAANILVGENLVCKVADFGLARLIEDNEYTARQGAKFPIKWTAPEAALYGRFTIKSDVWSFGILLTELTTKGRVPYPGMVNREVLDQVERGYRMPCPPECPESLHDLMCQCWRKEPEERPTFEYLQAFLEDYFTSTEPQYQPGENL
Method in brief: (§3)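 Z-LYTE FRET kinase assay: enzyme (3000 or 2000 ng/mL stock, respectively) preincubated 2 h at RT with compound (4–0.004 μg/mL stocks), then FRET peptide plus ATP (800 μM stock for c-Src, 60 μM for Syk) added for 1 h. Protease development 1 h; phosphorylation from coumarin/fluorescein emission ratio.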

Syk [5] = molecular target: T2, Syk; experiment: Syk enzyme inhibition (FRET, Z-LYTE); format: biochemical
Method in brief: as §3

GSK3α [6] = molecular target: T3, GSK3α; experiment: GSK 3α enzyme inhibition (FRET, Z-LYTE); format: biochemical
Method in brief: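 GSK3α (500 ng/mL stock) was preincubated 2 hr at RT with compound (4 to 0.004 μg/mL stocks), then FRET peptide (8 μM stock) and ATP (40 μM stock) added for 1 hr. Protease development for 1 hr cleaved unphosphorylated peptide; coumarin/fluorescein emission ratio reported phosphorylation.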

[7] = system: LPS-induced TNFα release in d-U937 cells; experiment: LPS-induced TNFα release in d-U937 cells; format: cell-based; conditions: Homo sapiens, dU937, relative to 10 μg/mL BIRB796, read-out: LPS Induced Release of Cytokine in d-937 Cells TNFα REC50
Method in brief: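 Read-out: TNFα and IL-8 released into supernatant, sandwich ELISA, expressed as inhibition versus vehicle at each dose and fitted to give REC50. Cells were PMA-differentiated U937 (100 ng/mL, 48–72 hr), compound-exposed 2 hr before a 4 hr LPS stimulus (0.1 μg/mL).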

[8] = system: LPS-induced IL-8 release in d-U937 cells; experiment: LPS-induced IL-8 release in d-U937 cells; format: cell-based; conditions: Homo sapiens, dU937, read-out: LPS Induced Release of Cytokine in d-937 Cells IL-8 IC50
Method in brief: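 PMA-differentiated (100 ng/mL, 48–72 hr) U937 cells pre-incubated with compound 2 hr, then stimulated with LPS (0.1 μg/mL, E. coli O111:B4) for 4 hr. Supernatant TNFα and IL-8 measured by sandwich ELISA; inhibition versus vehicle control, REC50 from concentration-response curve.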

[9] = system: Poly I:C-induced ICAM-1 expression in BEAS2B cells; experiment: Poly I:C-induced ICAM-1 expression in BEAS2B cells; format: cell-based; conditions: Homo sapiens, BEAS-2B, read-out: Poly IC induced ICAM1 in BEAS2B IC50
Method in brief: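 BEAS2B human bronchial epithelial cells pre-incubated with compound for 2 hr, then transfected with 1 μg/mL poly I:C plus Oligofectamine. At 18 hr, surface ICAM-1 measured by cell-based ELISA (HRP, OD450–655). Signal corrected for cell number by crystal violet OD595.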

d-U937 cells = experiment: Cell viability: MTT assay; format: cell-based, human; conditions: 1 μg/mL
Method in brief: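 Differentiated U937 cells were exposed to compound at 1 or 10 μg/mL either 4 h in 5% FCS RPMI1640 or 24 h in 10% FCS RPMI1640, then given MTT for 1 h, DMSO-solubilised and read at 550 nm. Percent viability loss versus 0.5% DMSO vehicle; apparent gains appear negative.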

PBMC cells = experiment: Cell mitosis assay; format: cell-based, human
Protocol: Peripheral blood mononucleocytes (PBMCs) from healthy subjects are separated from whole blood (Quintiles, London, UK) using a density gradient (Histopaque-1077, Sigma-Aldrich, Poole, UK). The PBMCs (3 million cells per sample) are subsequently treated with 2% PHA (Sigma-Aldrich, Poole, UK) for 48 hr, followed by a 20 hr exposure to varying concentrations of test compounds. At 2 hr before collection, PBMCs are treated with demecolcine (0.1 μg/mL) (Invitrogen, Paisley, UK,) to arrest cells in metaphase. To observe mitotic cells, PBMCs are permeabilised and fixed by adding Intraprep (50 μL) (Beckman Coulter, France), and stained with anti-phospho-histone 3 (0.26 ng/L) (#9701; Cell Signalling, Danvers, Mass.) and propidium iodide (1 mg/mL) (Sigma-Aldrich, Poole, UK,) as previously described (Muehlbauer P. A. and Schuler M. J., Mutation Research, 2003, 537:117-130). Fluorescence is observed using an ATTUNE flow cytometer (Invitrogen, Paisley, UK), gating for lymphocytes.

B-Raf = B-Raf (Homo sapiens (Human), UniProt P15056); experiment: Enzyme binding assay (Kinomescan) B-Raf; conditions: read-out: % Inhibition for kinase binding at 500 nM B-Raf
Sequence of B-Raf (P15056 whole entry): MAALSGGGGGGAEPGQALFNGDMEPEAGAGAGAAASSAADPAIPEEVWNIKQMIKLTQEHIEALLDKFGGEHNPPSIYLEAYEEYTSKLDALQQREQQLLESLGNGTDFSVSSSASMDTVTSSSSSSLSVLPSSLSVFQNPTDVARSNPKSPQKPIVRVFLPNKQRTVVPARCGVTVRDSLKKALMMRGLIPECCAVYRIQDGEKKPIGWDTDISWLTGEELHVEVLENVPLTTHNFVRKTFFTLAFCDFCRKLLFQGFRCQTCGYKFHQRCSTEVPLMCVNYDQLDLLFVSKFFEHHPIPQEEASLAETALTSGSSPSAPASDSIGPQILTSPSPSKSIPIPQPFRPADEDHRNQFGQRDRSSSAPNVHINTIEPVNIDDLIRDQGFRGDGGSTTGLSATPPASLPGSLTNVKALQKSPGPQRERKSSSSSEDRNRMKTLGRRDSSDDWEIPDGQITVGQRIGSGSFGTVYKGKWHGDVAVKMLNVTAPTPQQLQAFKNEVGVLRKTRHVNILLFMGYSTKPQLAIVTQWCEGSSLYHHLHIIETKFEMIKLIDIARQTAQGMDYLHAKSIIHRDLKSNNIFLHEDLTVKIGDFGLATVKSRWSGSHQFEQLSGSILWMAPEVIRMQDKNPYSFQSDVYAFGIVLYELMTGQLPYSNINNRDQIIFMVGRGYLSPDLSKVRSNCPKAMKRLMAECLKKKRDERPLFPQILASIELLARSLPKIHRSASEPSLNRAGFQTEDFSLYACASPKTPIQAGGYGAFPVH
Protocol: as §2

[10] = system: LPS-induced airways neutrophilia in mice; experiment: LPS-induced neutrophil accumulation in mice; format: in vivo; conditions: Test Substance at 0.2 mg/mL, intra tracheal, dosed 8 hr pre-LPS challenge
Protocol: Non-fasted Balb/c mice are dosed by the intra tracheal route with either vehicle, or the test substance at the indicated times (within the range 2-8 hr) before stimulation of the inflammatory response by application of an LPS challenge. At T=0, mice are placed into an exposure chamber and exposed to LPS (7.0 mL, 0.5 mg/mL solution in PBS) for 30 min). After a further 8 hr the animals are anesthetized, their tracheas cannulated and BALF extracted by infusing and then withdrawing from their lungs 1.0 mL of PBS via the tracheal catheter. Total and differential white cell counts in the BALF samples are measured using a Neubaur haemocytometer. Cytospin smears of the BALF samples are prepared by centrifugation at 200 rpm for 5 min at RT and stained using a DiffQuik stain system (Dade Behring). Cells are counted using oil immersion microscopy. Data for neutrophil numbers in BAL are shown as mean±S.E.M. (standard error of the mean). The percentage inhibition of neutrophil accumulation is calculated for each treatment relative to vehicle treatment.

T1 sequence (Q16539 whole entry): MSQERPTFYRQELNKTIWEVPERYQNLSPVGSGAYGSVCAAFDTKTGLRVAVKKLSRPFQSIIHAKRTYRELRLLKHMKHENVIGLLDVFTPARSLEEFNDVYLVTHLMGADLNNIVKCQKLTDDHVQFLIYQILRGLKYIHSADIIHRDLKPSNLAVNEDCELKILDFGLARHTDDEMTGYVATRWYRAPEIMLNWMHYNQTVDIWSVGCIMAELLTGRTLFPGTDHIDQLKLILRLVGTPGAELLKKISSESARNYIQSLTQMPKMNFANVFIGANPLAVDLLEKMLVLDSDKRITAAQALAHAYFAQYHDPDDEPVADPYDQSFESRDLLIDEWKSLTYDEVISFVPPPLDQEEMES

Row | IC50 (p38 MAPKα [4]) [nM] | IC50 (cSrc) [nM] | IC50 (Syk [5]) [nM] | IC50 (GSK3α [6]) [nM] | EC50 [7] [nM] | IC50 [8] [nM] | Mitosis Assay % inhibition in PBMC cells at 5 μg/mL (PBMC cells) [%] | inhibition at 0.5 µM (B-Raf) [%] | Structure (SMILES) | inhibition at 0.5 µM (p38 MAPKα [1]) [%] | inhibition at 0.5 µM (p38 MAPKγ) [%] | inhibition at 0.5 µM (HCK) [%] | inhibition at 0.5 µM (Syk [2]) [%] | inhibition at 0.5 µM (GSK3α [3]) [%] | IC50 [9] [nM] | MTT Assay Cell viability at time point in d-U937 cells 4 h (d-U937 cells) | MTT Assay Cell viability at time point in d-U937 cells 24 h (d-U937 cells) | % Inhibition of neutrophil accumulation in BAL [10] [%] | Neutrophil numbers in BAL (+/−SEM) [10]
1 |  |  |  |  |  |  |  |  | CNC(=O)c1cc(Oc2ccc(NC(=O)Nc3ccc(Cl)c(C(F)(F)F)c3)cc2)ccn1 [Sorafenib] | 77 | 28 | 22 | 14 | 26 |  |  |  |  | 
2 | 33 | 13 | 14 | 3250 | 2.5 | 2.7 | 62.4 |  | CC(C)(C)c1cc(NC(=O)Nc2ccc(Oc3cc(Nc4ccc5[nH]ncc5c4)ncn3)c3ccccc23)n(-c2ccc(OCCN3CCOCC3)cc2)n1 [Example 70, 1-(4-((6-((1H-indazol-5-yl)amino)pyrimidin-4-yl)oxy)naphthalen-1-yl)-3-(3-(tert-butyl)-1-(4-(2-morpholinoethoxy)phenyl)-1H-pyrazol-5-yl)urea] |  |  |  |  |  | 4.1 | −ve (−ve and +ve indicate that the value is below and above respectively, the no significant effect threshold, defined as 30% inhibition at 1 μg/mL at the time point indicated.) | −ve (−ve and +ve indicate that the value is below and above respectively, the no significant effect threshold, defined as 30% inhibition at 1 μg/mL at the time point indicated.) |  | 
3 | 92 | 14 | 75 | 2100 | 17.2 | 2.3 | 41.2 |  | Cc1ccc(-n2nc(C(C)(C)C)cc2NC(=O)Nc2ccc(Oc3ccnc(Nc4ccc5[nH]nnc5c4)n3)c3ccccc23)cc1 [Example 36, 1-(4-((2-((1H-benzo[d][1,2,3]triazol-5-yl)amino)pyrimidin-4-yl)oxy)naphthalen-1-yl)-3-(3-(tert-butyl)-1-(p-tolyl)-1H-pyrazol-5-yl)urea] |  |  |  |  |  | 6.3 | −ve (−ve and +ve indicate that the value is below and above respectively, the no significant effect threshold, defined as 30% inhibition at 1 μg/mL at the time point indicated.) | −ve (−ve and +ve indicate that the value is below and above respectively, the no significant effect threshold, defined as 30% inhibition at 1 μg/mL at the time point indicated.) |  | 
4 |  |  |  |  | 0.13 |  |  | 70 | COCC(=O)Nc1cc(Oc2ccc(NC(=O)Nc3cc(C(C)(C)C)nn3-c3ccc(C)cc3)c3ccccc23)ccn1 [Reference Compound, N-(4-(4-(3-(3-tert-butyl-1-p-tolyl-1H-pyrazol-5-yl)ureido)naphthalen-1-yloxy)pyridin-2-yl)-2-methoxyacetamide, reference compound] | 100 |  | 100 | 95 | 84 | 2.1 | −ve (−ve and +ve indicate that the value is below and above respectively, the no significant effect threshold, defined as 30% inhibition at 1 μg/mL at the time point indicated.) | +ve (−ve and +ve indicate that the value is below and above respectively, the no significant effect threshold, defined as 30% inhibition at 1 μg/mL at the time point indicated.) | 60 | 5.6 ± 0.86 ×10^5/mL
